Data set [1] has as its system CH1/PA-1 ovarian teratocarcinoma cells. Put plainly: MTT assay (cytotoxicity). The conditions noted are these: CH1/PA-1, MTT. It counts as cell-based, human. In short, it runs like this:
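Cells in supplemented MEM were exposed 24 h or 96 h to nine two-fold serial dilutions (DMSO stocks 20 or 40 mM), in triplicate. Viability by MTT conversion for 4 h, formazan dissolved in DMSO, absorbance at 550 nm (690 nm reference); IC50 interpolated from blank-corrected OD, ≥3 independent experiments.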

The subject of data set [2] is SW480 cells. Nature of the data set: Colony formation assay. In kind it is cell-based, human. The conditions noted are these: SW480, 11 days, relative to untreated control. The procedure: For the colony formation assay, SW480 cells were seeded at a density of 350 cells/2 mL into each well of 6-well plates (CytoOne, tissue culture treated) and left to adhere for 24 h. To determine the long-term effects of the test compounds, the cells were exposed to them for 11 days at 37 °C and 5% CO2. After incubation, the wells were gently washed with 1 mL cold PBS and the colonies were fixed with 1 mL cold (4 °C) 100% methanol (Thermo Fisher, Waltham, MA, USA) for 30 min at 4 °C and washed with 1 mL PBS again. The fixed colonies were stained with 1 mL of 0.5% w/v crystal violet (Sigma-Aldrich) in methanol for 2 min and the plates were washed under tap water. After drying the plates, images of the wells were captured, and colonies were counted with the colony counting function of Fusion Fx7 software (Vilber Lourmat, Collégien, France). Results were normalized to untreated controls. Data are averaged from at least three independent experiments.

The test system of data set [3] is pUC19 plasmid. Put plainly: DNA interaction assay (dsDNA plasmid, agarose gel electrophoresis). It counts as biochemical. To be noted: 50 µM, up to 6 h. On the procedure: The incubation was performed at 37 °C for different time intervals (15 min to 6 h) with continuous shaking. Additionally, 4 µL aliquots of a 6× DNA loading dye (Thermo Fisher) were added to the 20 µL reaction solution, and the DNA samples were separated in a 1% agarose gel in 1 × Tris-Borate-EDTA (TBE) buffer. Electrophoresis was initiated at 60 V for 5 min and continued at 120 V for 90 min in 1 × TBE buffer. For visualization of the DNA modification degree, the agarose gel was stained with ethidium bromide (EtBr) in 1 × TBE (0.75 µg/mL) for 20 min.

Data set [4] has as its target T1, NQO1 (SW480 cells) (Homo sapiens, UniProt P15559).
T1 construct: impact on NQO1 activity in SW480 (left panel) and CH1/PA-1 (right panel) cell extracts after treatment; endogenous in cells; host or cells: SW480 colon carcinoma cells (ATCC)
Nature of the data set: NQO1 activity assay in cell extracts after treatment. It counts as cell-based. To be noted: SW480, 24 h treatment. On the procedure: To determine NQO1 activity, SW480 and CH1/PA-1 cells were seeded into 6-well plates in densities of 2 × 10^5 cells/well in 2 mL supplemented MEM. […] The test substances were dissolved in DMSO/medium. To exclude that assay validity was compromised by the use of DMSO, cells treated with DMSO alone (at concentrations corresponding to those in substance solutions) were measured in parallel. After 24 h drug exposure, the medium was aspirated, and the cells were gently washed twice with PBS. The further steps were performed following the manual instructions of the NQO1 activity assay kit (ab184867, abcam, Cambridge, UK). Protease inhibitor phenylmethylsulfonyl fluoride (PMSF, Merck, Darmstadt, Germany) and phosphatase inhibitor PhosSTOP^TM (Roche, Basel, Switzerland) were applied. For determining the protein concentration, the Micro BCA^TM protein assay (prod # 23235, Thermo Scientific) kit was used. For NQO1 activity determination, 100 µg/mL of total protein was loaded. The development of yellow color was monitored for 5 min in 20-sec intervals with a microplate reader (BioTek ELx808) at 450 nm. The measured data were evaluated according to the instructions of the NQO1 activity assay kit: “NQO1 activity was calculated by subtracting the OD value with Inhibitor from the one without Inhibitor. The activity is expressed as the change in absorbance per minute per amount of sample loaded into the well” [30]. Data are expressed as rates of increase of mean absorbance ± SDs from three independent experiments.

Data set [5] relates to SW480 cells. Nature of the data set: Apoptosis assay (annexin V-FITC/PI, flow cytometry). To be noted: SW480, 24 h; for early apoptotic cells / late apoptotic cells / necrotic cells / viable cells: mean ± SD.
Procedure: Cell death induction was quantitatively analyzed via flow cytometry using double staining with FITC-conjugated annexin V (eBioscience, San Diego, CA, USA) and propidium iodide (PI, 1.0 mg/mL, Sigma-Aldrich). SW480 cells were seeded into 24-well plates (7 × 10^4 cells/well) in 600 µL MEM per well and allowed to settle for 24 h. Afterward, cells were exposed to two or three different concentrations (0.1–100 µM) of the compounds (based on their cytotoxic activity) for 24 h. After treatment, the medium was collected, and cells were washed once with 37 °C warm PBS and harvested. Following trypsinization, the cell suspension was added to the pre-collected medium and cells were centrifuged (300 g, 3 min). The supernatant was removed, and the cell pellet was resuspended with 1.5 µL FITC-conjugated annexin V in 150 µL binding buffer (10 mM HEPES/NaOH pH 7.4, 140 mM NaCl and 2.5 mM CaCl2) and incubated at 37 °C for 15 min. An amount of 1 µL of propidium iodide (PI, Thermo Fisher) was added shortly before flow-cytometric analysis using a Guava easyCyte 8HT instrument (Merck Millipore, Burlington, MA, USA) with InCyte software. Results were quantified by using the FlowJo software (TreeStar). At least three independent experiments were conducted.

T1 sequence (P15559 whole entry): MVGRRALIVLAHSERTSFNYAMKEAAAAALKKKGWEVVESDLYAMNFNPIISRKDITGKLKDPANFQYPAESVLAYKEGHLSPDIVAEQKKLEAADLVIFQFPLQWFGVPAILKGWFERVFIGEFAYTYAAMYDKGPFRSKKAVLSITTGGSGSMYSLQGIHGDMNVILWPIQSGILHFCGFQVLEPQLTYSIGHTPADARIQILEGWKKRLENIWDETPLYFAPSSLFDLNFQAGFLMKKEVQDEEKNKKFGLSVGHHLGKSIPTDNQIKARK

On to `CC1=C([O-])C([O-])(n2cccn2)c2ccccc2C1=O.[Ru+2].c1ccc(-c2ccccc2)cc1` (racemic) [Compound 5], for which the IC50 in data set [1] (24 h exposure) worked out at 42 ± 4 µM; in data set [1] (96 h exposure) it was 30 ± 3 µM. The Number of colonies in data set [2] (0.039 µM) is 19 ± 7%; in data set [2] (0.078 µM), 4.0 ± 2.0%; in data set [2] (0.16 µM), 0.22 ± 0.48%. Also, in data set [3], the “Influence on pUC19 (in words)” value is “only a minor influence on pUC19”. For the same compound, the “Effect on NQO1 activity (in words)” value in data set [4] (0.1 µM and 1 µM, compared to untreated control) is reported as “negligible effects”; in data set [4] (10 µM) it was “lowered NQO1 activity tremendously”. Further, the figures for the early apoptotic cells in data set [5] (0.1 µM), in data set [5] (1 µM) and in data set [5] (10 µM) were 3.0 ± 2.2%, 1.0 ± 0.5% and 25 ± 7%, respectively. Also, the late apoptotic cells in data set [5] (0.1 µM) came to 2.9 ± 1.5%; in data set [5] (1 µM) it was 3.3 ± 1.3%; in data set [5] (10 µM), 40 ± 6%. The necrotic cells in data set [5] (0.1 µM) is given as 1.0 ± 0.5%; in data set [5] (1 µM), 0.85 ± 0.48%; in data set [5] (10 µM) it was 6.3 ± 2.2%. For the same compound, the viable cells amounted to 93 ± 4% in data set [5] (0.1 µM), 95 ± 2% in data set [5] (1 µM) and 29 ± 11% in data set [5] (10 µM). Moreover, the “Apoptosis / necrosis induction (in words)” value in data set [5] (concentrations covering the IC50 range) is listed as “induced apoptosis to a high extent”.

The values are drawn from publication PMC9699003, “Arene Variation of Highly Cytotoxic Tridentate Naphthoquinone-Based Ruthenium(II) Complexes and In-Depth In Vitro Studies” (Pharmaceutics, 2022).
